Counter-ions that a name gives are not always drawn.
Legend:
[1] = target: recombinant human arginase 1 (Homo sapiens, UniProt P05089); test: Arginase inhibitory activity test, enzymatic assay based on urea measurement (Arg 1);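 further: enzyme incubated with L-arginine substrate and compound at 37 °C for 120 min, urea product detected colorimetrically by absorbance at 450 nm, background from wells lacking enzyme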
Description: (§1) An enzymatic assay with recombinant human arginases 1 or 2 was used to measure inhibitory activity of the compounds. The assay is based on urea measurement, which is a product of L-arginine enzymatic degradation.
(§2) Briefly, arginase and the substrate solution containing L-arginine were incubated in the absence or presence of varying concentrations of compounds at 37° C. for 120 min. For the background correction, only the substrate solution was added without arginase. The urea detection reagent from QuantiChrome™ Urea assay kit (BioAssay Systems, CA) was added to develop the color product. After 60 min at room temperature, the absorbance was measured at 450 nm with CLARIOstar (BMG LABTECH). Urea was used as the standard.

[2] = target: T1, recombinant human arginase 2 (Homo sapiens, UniProt P78540); test: Arginase inhibitory activity test, enzymatic assay based on urea measurement (Arg 2); assay type: biochemical; details: 37° C. for 120 min, urea detection, read-out: Arg 2 enzymatic potency
T1 sequence (P78540 23-354): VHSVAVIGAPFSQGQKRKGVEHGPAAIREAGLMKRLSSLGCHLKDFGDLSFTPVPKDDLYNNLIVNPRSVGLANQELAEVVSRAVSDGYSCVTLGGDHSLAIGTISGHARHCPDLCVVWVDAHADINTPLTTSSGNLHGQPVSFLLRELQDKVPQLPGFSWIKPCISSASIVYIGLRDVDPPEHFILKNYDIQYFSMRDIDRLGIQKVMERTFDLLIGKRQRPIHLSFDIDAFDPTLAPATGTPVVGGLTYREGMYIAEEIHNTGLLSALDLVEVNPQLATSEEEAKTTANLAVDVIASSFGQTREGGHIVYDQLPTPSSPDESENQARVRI
Description: Urea was used as the standard.

[3] = target: T2, recombinant human arginase 1 (Homo sapiens, UniProt P05089); test: Arginase inhibitory activity test, enzymatic assay based on urea measurement (Arg 1); remark: listed apart in the source;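 further: enzyme incubated with L-arginine substrate and compound at 37 °C for 120 min, urea product detected colorimetrically by absorbance at 450 nm, background from wells lacking enzyme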
T2 sequence (P05089 1-322): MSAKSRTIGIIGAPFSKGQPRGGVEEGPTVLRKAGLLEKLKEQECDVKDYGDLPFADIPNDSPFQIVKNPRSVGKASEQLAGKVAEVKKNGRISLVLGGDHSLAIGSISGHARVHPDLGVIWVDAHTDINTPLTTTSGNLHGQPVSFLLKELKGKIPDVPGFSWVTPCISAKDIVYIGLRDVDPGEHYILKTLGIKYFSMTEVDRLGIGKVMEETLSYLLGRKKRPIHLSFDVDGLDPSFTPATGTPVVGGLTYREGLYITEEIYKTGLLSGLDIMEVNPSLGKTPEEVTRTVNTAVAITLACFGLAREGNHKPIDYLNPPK
Description: as §1, §2

SMILES	IC50 [1] [nM]	IC50 [2] [nM]	IC50 [3] [nM]
CN(C[C@H](N)C(F)F)S(=O)(=O)N1C[C@H](CCCB(O)O)[C@](N)(C(=O)O)C1 (racemic)	100 to 1000		
N[C@@H](CNS(=O)(=O)N1C[C@H](CCCB(O)O)[C@](N)(C(=O)O)C1)C(F)F (racemic)	100 to 1000		
CC(C)(CN)NS(=O)(=O)N1C[C@H](CCCB(O)O)[C@](N)(C(=O)O)C1 (racemic) [Example 26, (rac)-trans-3-amino-1-(N-(1-amino-2-methylpropan-2-yl)sulfamoyl)-4-(3-boronopropyl)pyrrolidine-3-carboxylic acid, (1:2) 2,2,2-trifluoroacetic acid salt]		< 100	< 100
N[C@@]1(C(=O)O)CN(S(=O)(=O)N2CCNCC2)C[C@@H]1CCCB(O)O (racemic) [Example 30, (rac)-trans-3-amino-4-(3-boronopropyl)-1-(piperazin-1-ylsulfonyl)pyrrolidine-3-carboxylic acid, 2,2,2-trifluoroacetic acid salt (1:2)]		100 to 1000	< 100
Nc1c(N2C[C@H](CCCB(O)O)[C@](N)(C(=O)O)C2)c(=O)c1=O (racemic) [Example 3, (rac)trans-3-amino-1-(2-amino-3,4-dioxocyclobut-1-en-1-yl)-4-(3-boronopropyl)pyrrolidine-3-carboxylic acid, (1:1) 2,2,2-trifluoroacetic acid salt]		100 to 1000	100 to 1000
N[C@@]1(C(=O)O)CN(S(N)(=O)=O)C[C@@H]1CCCB(O)O (racemic) [Example 1, (rac)trans-3-amino-4-(3-boronopropyl)-1-sulfamoylpyrrolidine-3-carboxylic acid, (1:1) 2,2,2-trifluoroacetic acid salt]		100 to 1000	< 100
CC(C)(N)CNS(=O)(=O)N1C[C@H](CCCB(O)O)[C@](N)(C(=O)O)C1 (racemic) [Example 25, (rac)-trans-3-amino-1-(N-(2-amino-2-methylpropyl)sulfamoyl)-4-(3-boronopropyl)pyrrolidine-3-carboxylic acid, (1:2) 2,2,2-trifluoroacetic acid salt]		< 100	< 100
NCC1(NS(=O)(=O)N2C[C@H](CCCB(O)O)[C@](N)(C(=O)O)C2)COC1 (racemic) [Example 31]		100 to 1000	< 100
N[C@@]1(C(=O)O)CN(S(=O)(=O)Nc2ccccn2)C[C@@H]1CCCB(O)O (racemic) [Example 4, (rac)trans-3-amino-4-(3-boronopropyl)-1-(N-(pyridin-2-yl)sulfamoyl)pyrrolidine-3-carboxylic acid compound with 2,2,2-trifluoroacetic acid (1:2)]		100 to 1000	100 to 1000
N[C@@]1(C(=O)O)CN(S(=O)(=O)Nc2cc[nH]n2)C[C@@H]1CCCB(O)O (racemic) [Example 6, (rac)trans-1-(N-(1H-pyrazol-3-yl)sulfamoyl)-3-amino-4-(3-boronopropyl)pyrrolidine-3-carboxylic acid, (1:2) 2,2,2-trifluoroacetic acid salt]		100 to 1000	100 to 1000
N=C(N)N1C[C@H](CCCB(O)O)[C@](N)(C(=O)O)C1 (racemic) [Example 37, rac-(trans)-3-amino-4-(3-boronopropyl)-1-carbamimidoylpyrrolidine-3-carboxylic acid, 2,2,2-trifluoroacetic acid salt (1:2)]		100 to 1000	100 to 1000
N[C@H]1COCC1NS(=O)(=O)N1C[C@H](CCCB(O)O)[C@](N)(C(=O)O)C1 (mixture of isomers) [Example 23, (rac)-trans-3-amino-1-(N-((rac)cis-4-aminotetrahydrofuran-3-yl)sulfamoyl)-4-(3-boronopropyl)pyrrolidine-3-carboxylic acid (diastereomers), 2,2,2-trifluoroacetic acid salt (1:2)]			100 to 1000
C[C@@H](N)CNS(=O)(=O)N1C[C@H](CCCB(O)O)[C@](N)(C(=O)O)C1 (racemic) [Example 17, (rac)trans-3-amino-1-(N-((R)-2-aminopropyl)sulfamoyl)-4-(3-boronopropyl)pyrrolidine-3-carboxylic acid (diastereomers), 2,2,2-trifluoroacetic acid salt (1:2) (Diasteromers)]			< 100
CN(CCN)c1c(N2C[C@H](CCCB(O)O)[C@](N)(C(=O)O)C2)c(=O)c1=O [Example 29, (3R,4S)-3-amino-1-(2-((2-aminoethyl)(methyl)amino)-3,4-dioxocyclobut-1-en-1-yl)-4-(3-boronopropyl)pyrrolidine-3-carboxylic acid, 2,2,2-trifluoroacetic acid salt (1:2)]			< 100
NCCNS(=O)(=O)N1C[C@H](CCCB(O)O)[C@](N)(C(=O)O)C1 (racemic) [Example 5, (rac)trans-3-amino-1-(N-(2-aminoethyl)sulfamoyl)-4-(3-boronopropyl)pyrrolidine-3-carboxylic acid compound with 2,2,2-trifluoroacetic acid (1:2)]		< 100	< 100
N[C@@]1(C(=O)O)CN(S(=O)(=O)N(Cc2ccccc2)C2CNC2)C[C@@H]1CCCB(O)O [Example 62, (3R,4S)-3-amino-1-(N-(azetidin-3-yl)-N-benzylsulfamoyl)-4-(3-boronopropyl)pyrrolidine-3-carboxylic acid, 2,2,2-trifluoroacetic acid salt (1:2)]			< 100
N[C@@]1(C(=O)O)CN(S(=O)(=O)NC2CNC2)C[C@@H]1CCCB(O)O (racemic) [Example 34, (rac)-trans-3-amino-1-(N-(azetidin-3-yl)sulfamoyl)-4-(3-boronopropyl)pyrrolidine-3-carboxylic acid, 2,2,2-trifluoroacetic acid salt (1:2)]			< 100
CC(C)(N)C(C)(C)NS(=O)(=O)N1C[C@H](CCCB(O)O)[C@](N)(C(=O)O)C1 (racemic) [Example 50, (racemic)-trans-3-amino-1-(N-(3-amino-2,3-dimethylbutan-2-yl)sulfamoyl)-4-(3-boronopropyl)pyrrolidine-3-carboxylic acid, 2,2,2-trifluoroacetic acid salt (1:2)]			100 to 1000
CN(C)CCN(C)S(=O)(=O)N1C[C@H](CCCB(O)O)[C@](N)(C(=O)O)C1 (racemic) [Example 45, (racemic)-trans-3-amino-4-(3-boronopropyl)-1-(N-(2-(dimethylamino)ethyl)-N-methylsulfamoyl)pyrrolidine-3-carboxylic acid, 2,2,2-trifluoroacetic acid salt (1:2)]			100 to 1000
N[C@@]1(C(=O)O)CN(S(=O)(=O)N(CC2CC2)[C@@H]2CCNC2)C[C@@H]1CCCB(O)O [Example 70, (3R,4S)-3-amino-4-(3-boronopropyl)-1-(N-(cyclopropylmethyl)-N-((R)-pyrrolidin-3-yl)sulfamoyl)pyrrolidine-3-carboxylic acid, 2,2,2-trifluoroacetic acid salt (1:2)]			< 100
NCCN(CC1CC1)S(=O)(=O)N1C[C@H](CCCB(O)O)[C@](N)(C(=O)O)C1 [Example 67, (3R,4S)-3-amino-1-(N-(2-aminoethyl)-N-(cyclopropylmethyl)sulfamoyl)-4-(3-boronopropyl)pyrrolidine-3-carboxylic acid, 2,2,2-trifluoroacetic acid salt (1:2)]			< 100
CC1(C)[C@H]2C[C@@H]3OB(CCC[C@H]4CN(S(=O)(=O)NCCN)C[C@@]4(N)C(=O)O)O[C@]3(C)[C@@H]1C2 (racemic) [Example 36]			< 100
CCCN(C1CNC1)S(=O)(=O)N1C[C@H](CCCB(O)O)[C@](N)(C(=O)O)C1 [Example 59, (3R,4S)-3-amino-1-(N-(azetidin-3-yl)-N-propylsulfamoyl)-4-(3-boronopropyl)pyrrolidine-3-carboxylic acid, 2,2,2-trifluoroacetic acid salt (1:2)]			< 100
CC(C)C(NS(=O)(=O)N1CC(CCCB(O)O)C(N)(C(=O)O)C1)C(=O)O (racemic) [Example 11, (rac)trans-3-amino-4-(3-boronopropyl)-1-(N-((S)-1-carboxy-2-methylpropyl)sulfamoyl)pyrrolidine-3-carboxylic acid (diastereomer), (1:1) 2,2,2-trifluoroacetic acid salt]			1000 to 10000
CN1CCN(S(=O)(=O)N2C[C@H](CCCB(O)O)[C@](N)(C(=O)O)C2)CC1 (racemic) [Example 44, (racemic)-trans-3-amino-4-(3-boronopropyl)-1-((4-methylpiperazin-1-yl)sulfonyl)pyrrolidine-3-carboxylic acid, 2,2,2-trifluoroacetic acid salt (1:2)]			100 to 1000

From patent US20220251116A1, “ALKYLBORONIC ACIDS AS ARGINASE INHIBITORS” (Guangdong Newopp Biopharmaceuticals Co., Ltd., priority 2019, published 2022)
